Results as given in patent publication US20080269155A1, “REMEDY OR PREVENTIVE FOR KIDNEY DISEASE AND METHOD OF DIAGNOSING KIDNEY DISEASE” (TORAY INDUSTRIES INC., priority 2002, published 2008).

What was measured:
[1] = tested on: casein kinase 2 α subunit; experiment: Western blot of casein kinase 2 α subunit protein in kidney tissue of nephritis rats given oligonucleotides; format: in vivo, rat; conditions: 12 μg/day into kidney tissue by Alzet pump from one day before induction to 7th day
Method: This example was carried out for studying the effect of administration of an antisense oligonucleotide against casein kinase 2 α subunit, so as to confirm the utility of the present invention. To rats (Wistar-Kyoto strain, male, body weight 190 to 210 g), rabbit anti-glomerular basement membrane antibody was intravenously administered (0.3 ml/kg) to induce nephritis. […] The nucleic acid molecules of the oligonucleotides were S-oligonucleotides containing phosphorothioate moieties, and a cationic liquid (Polyplus transfection) was used for making the uptake of the oligonucleotide easier. More particularly, the groups used in the experiment were normal group (normal rats to which the antisense oligonucleotide against casein kinase 2 α subunit and the antisense oligonucleotide were not administered, n=8), nephritis control group (nephritis rats to which the antisense oligonucleotide against casein kinase 2 α subunit and the antisense oligonucleotide were not administered, n=8), nephritis+antisense oligonucleotide against casein kinase 2 α subunit-administered group (group of the present invention, nephritis rats to which the antisense oligonucleotide against casein kinase 2 α subunit was administered, n=4), and nephritis+sense oligonucleotide of casein kinase 2 α subunit-administered group (negative control group, nephritis rats to which the sense oligonucleotide of casein kinase 2 α subunit was administered), totally four groups. On the 7th day from the induction, all rats were placed in metabolic cages, and urine excreted during 24 hours was collected and the amount of the urine was measured. The urine was then centrifuged at 3000 rpm for 15 minutes, and the urine protein in the supernatant was measured. Further, after the collection of urine, the kidneys were isolated, proteins were extracted from each kidney tissue by a conventional method, and the proteins (1 mg/ml, 20 μl) were electrophoresed (PAGERUN, ATTO, 40 mA, 84 min) on 12.5% polyacrylamide gel (PAGEL, ATTO). The electrophoresed proteins were blotted (100V, 90 min) on a PVDF membrane (Millipore). The membrane was blocked (Blocking Ace, Dainippon Pharmaceutical, 4° C., 1 hour), and washed three times (10 min) with PBS containing Tween 20. Then the membrane was incubated (at room temperature for 1 hour) with an anti-casein kinase 2 α subunit (originated from goat, Santa cruz, 100-fold diluted) as the primary antibody. […] After the incubation, the amounts of the casein kinase 2 α subunit protein were measured, respectively, using ECL reagent (Amersham). This measurement was carried out by taking photographs of the detected casein kinase 2 so as to make image files of the amount of the casein kinase 2 protein, and digitalizating the image file using a software NIH Image on Macintosh.

nephritis rat models = experiment: Nephritis rat model induced by anti-glomerular basement membrane antibody: kidney function markers and kidney pathology; format: in vivo; conditions: for urine protein: 24-hour urine on 7th day from induction
[2] = oligonucleotide 12 μg/day into kidney tissue, FIG. 2

## 5′-GTAATCATCTTGATTACCCCA-3′ (chemistry not given here)
[1]; no-oligonucleotide kidney = 1
  Protein Amount Ratio of Casein Kinase 2 α Subunit: prominently decreased
[1]; no-oligonucleotide kidney = 1, listed as Antisense Oligonucleotide
  Protein Amount Ratio of Casein Kinase 2 α Subunit: 0.45
Nephritis rat models; [2]
  urine protein: significantly decreased

## 5′-TGGGGTATCAATCAAGATGATTAC-3′ (chemistry not given here) [negative control]
[1]; no-oligonucleotide kidney = 1
  Protein Amount Ratio of Casein Kinase 2 α Subunit: did not decrease
[1]; no-oligonucleotide kidney = 1, listed as Sense Oligonucleotide
  Protein Amount Ratio of Casein Kinase 2 α Subunit: 1.07
Nephritis rat models; [2]
  urine protein: did not significantly decrease

## Cc1cc(O)c2c(c1)C(=O)c1cc(O)cc(O)c1C2=O [3-methyl-1,6,8-trihydroxyanthraquinone]
Nephritis rat models; 20 mg/l kg body weight intraperitoneally once a day, 14th day from induction, FIG. 6
  blood creatinine level: almost normalized
Nephritis rat models; 20 mg/l kg body weight intraperitoneally once a day, FIG. 5
  urine protein: significantly decreased
Nephritis rat models; 20 mg/l kg body weight intraperitoneally once a day, hematoxylin-eosin-stained specimens
  pathological finding of the kidney tissue: improvements in the glomeruli and in the renal tubule interstitium were observed

## O=c1cc(-c2ccc(O)cc2)oc2cc(O)cc(O)c12 [apigenin]
Nephritis rat models; apigenin 20 mg/l kg body weight intraperitoneally once a day, FIG. 4
  urine protein: significantly decreased
